Test results published in ChEMBL document CHEMBL1201862, “PubChem BioAssay data set” (2004).
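Results reflect a 48-hour exposure of cells in 96-well plates to compound at five concentrations. GI50 = concentration required for 50% inhibition of growth.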 The source made the active and inactive calls. No stated cut-off is given here; in the data, active = GI50 up to about 1.1 µM and inactive = higher.

Legend:
Assay in all cases: DTP human tumour cell line panel, 48 h
[1] = test system: PC-3
[2] = test system: MCF7
[3] = test system: IGROV-1
[4] = test system: DU-145
[5] = test system: MDA-MB-435
[6] = test system: OVCAR-3
[7] = test system: RPMI-8226
[8] = test system: NCI-H460
[9] = test system: SF-268
[10] = test system: Hs-578T
[11] = test system: HL-60
[12] = test system: M14
[13] = test system: TK-10
[14] = test system: MOLT-4
[15] = test system: A498
[16] = test system: UACC-257
[17] = test system: NCI-H226
[18] = test system: SK-MEL-2
[19] = test system: U-251
[20] = test system: SF-539
[21] = test system: Malme-3M
[22] = test system: ACHN
[23] = test system: SF-295
[24] = test system: HCT-116
[25] = test system: UO-31
[26] = test system: SK-MEL-28
[27] = test system: EKVX
[28] = test system: A549
[29] = test system: OVCAR-5
[30] = test system: LOX IMVI
[31] = test system: SK-MEL-5
[32] = test system: OVCAR-4
[33] = test system: COLO 205
[34] = test system: UACC-62
[35] = test system: RXF 393
[36] = test system: HCT-15
[37] = test system: NCI-H23
[38] = test system: KM12
[39] = test system: CCRF-CEM
[40] = test system: MDA-N
[41] = test system: SN12C
[42] = test system: SK-OV-3
[43] = test system: CAKI-1
[44] = test system: 786-0
[45] = test system: HCC 2998
[46] = test system: HOP-62
[47] = test system: NCI-H522
[48] = test system: HT-29
[49] = test system: SR
[50] = test system: T47D
[51] = test system: SNB-19
[52] = test system: NCI/ADR-RES
[53] = test system: SW-620
[54] = test system: MDA-MB-231
[55] = test system: HOP-92
[56] = test system: OVCAR-8
[57] = test system: K562
[58] = test system: SNB-75

Measured: GI50

COc1cc(/C=C/c2ccnc3ccccc23)cc(OC)c1OC
active: [5] 0.413 µM | [11] 0.416 µM | [25] 0.132 µM | [40] 0.351 µM
2.56 µM: [36]
inactive: [1] 9.29 µM | [2] 5.22 µM | [3] 3.66 µM | [4] 4.84 µM | [6] 3.3 µM | [7] 3.72 µM | [8] 3.77 µM | [9] 3.39 µM | [10] 3.85 µM | [12] 3.63 µM | [13] 5.37 µM | [14] 2.92 µM | [15] 4 µM | [16] 5.27 µM | [17] 5.04 µM | [18] 3.78 µM | [19] 4.99 µM | [20] 3.78 µM | [21] 2.98 µM | [22] 7.23 µM | [23] 8.47 µM | [24] 1.82 µM | [26] 3.08 µM | [27] 8.87 µM | [28] 4.52 µM | [29] 7.8 µM | [30] 4.63 µM | [31] 2.45 µM | [32] 1.81 µM | [33] 1.88 µM | [34] 3.17 µM | [35] 1.63 µM | [37] 1.66 µM | [38] 3.23 µM | [39] 2.09 µM | [41] 3.56 µM | [42] 4.19 µM | [43] 3.7 µM | [44] 8.97 µM | [45] 8.47 µM | [46] 7.16 µM | [47] 2.13 µM | [48] 1.28 µM | [49] 1.35 µM | [50] 3.81 µM | [51] 10.4 µM | [52] 2.46 µM | [53] 4.93 µM | [54] 2.21 µM

CCc1cc2c(cc1C(=O)CCC(=O)O)CC1(C2)Cc2cc(CC)c(C(=O)CCC(=O)O)cc2C1
inactive: [1] > 100 µM | [2] > 100 µM | [3] > 100 µM | [4] > 100 µM | [5] > 100 µM | [6] > 100 µM | [7] 63.1 µM | [8] > 100 µM | [9] 82.4 µM | [10] > 100 µM | [11] > 100 µM | [12] > 100 µM | [13] > 100 µM | [14] > 100 µM | [15] > 100 µM | [16] > 100 µM | [17] > 100 µM | [55] > 100 µM | [18] 99.8 µM | [19] > 100 µM | [20] > 100 µM | [21] 38.5 µM | [22] > 100 µM | [23] > 100 µM | [24] > 100 µM | [25] > 100 µM | [26] 35.6 µM | [27] > 100 µM | [28] > 100 µM | [29] > 100 µM | [30] > 100 µM | [31] > 100 µM | [56] > 100 µM | [32] > 100 µM | [33] > 100 µM | [35] > 100 µM | [37] > 100 µM | [38] > 100 µM | [39] 32.2 µM | [40] > 100 µM | [41] > 100 µM | [42] > 100 µM | [43] > 100 µM | [44] > 100 µM | [45] > 100 µM | [57] 91.2 µM | [46] > 100 µM | [47] > 100 µM | [48] > 100 µM | [50] > 100 µM | [51] > 100 µM | [52] > 100 µM | [53] > 100 µM | [58] 50.5 µM | [54] > 100 µM
> 100 µM: [36]

COc1ccccc1N1CCN(Cn2c(=O)oc3cccnc32)CC1
> 100 µM: [36]
inactive: [1] > 100 µM | [2] > 100 µM | [3] > 100 µM | [4] > 100 µM | [5] > 100 µM | [6] > 100 µM | [7] > 100 µM | [8] > 100 µM | [9] > 100 µM | [10] > 100 µM | [11] > 100 µM | [12] > 100 µM | [13] > 100 µM | [14] > 100 µM | [15] > 100 µM | [16] > 100 µM | [55] > 100 µM | [18] > 100 µM | [19] 90.2 µM | [20] > 100 µM | [21] > 100 µM | [22] > 100 µM | [23] > 100 µM | [24] 56.4 µM | [25] > 100 µM | [26] > 100 µM | [27] > 100 µM | [28] > 100 µM | [29] > 100 µM | [30] > 100 µM | [31] > 100 µM | [56] > 100 µM | [32] > 100 µM | [35] > 100 µM | [37] > 100 µM | [39] 66.7 µM | [40] > 100 µM | [42] > 100 µM | [43] > 100 µM | [44] > 100 µM | [45] > 100 µM | [57] > 100 µM | [46] > 100 µM | [47] > 100 µM | [48] > 100 µM | [49] 40.3 µM | [50] > 100 µM | [51] > 100 µM | [52] > 100 µM | [53] 36.4 µM | [58] 30 µM | [54] > 100 µM
